Read-outs that look alike come from different tables or passages of the source.
Tests used:
Cell cytotoxicity (CC50) = type: cell-based; details: human; mean of at least two experiments
From the text: (§1) Compounds were subjected to RSV plaque reduction assays according to the following protocol. Plaque EC50 and cell toxicity CC50 values are a mean of at least two experiments and figures are rounded to whole units.
(§2) Plates were scanned and analysed using the Immunospot S6 Macro analyser, which is equipped with BioSpot analysis software for counting immunostained plaques (virospots). Plaque counts were used to calculate % c infection relative to the mean of the plaque count in the virus control wells for RSV. The EC50 value was calculated as 50% reduction in signal, respectively, by interpolation of inhibition curves fitted with a 4-parameter nonlinear regression with a variable slope in Dotmatics. Plaque EC50 and cell toxicity CC50 values are a mean of at least two experiments and figures are rounded to whole units.

RSV A2 = assay: RSV plaque reduction assay; type: cell-based, respiratory syncytial virus (RSV); details: human respiratory syncytial virus, HepG2, Hep-G2 cells, mean of at least two experiments
Method: as §1
Hep-G2 cells (ECACC, 85011430) were passaged in flasks and seeded in 24-well plates in DMEM containing antibiotics and supplemented with 10% FBS. During inoculation and subsequent incubation, cells were cultured in DMEM containing 2% FBS. 100 plaque forming unit/well of RSV (RSV A2 ECACC, 0709161v) was mixed with eight serial dilutions of compound. Subsequently, 100 μL of the virus/compound mixtures was added to confluent Hep-G2 cell monolayers. The cells and virus/compound mixtures were incubated at 37° C. in a humidified 5% CO2 incubator for 2 h prior to removal of the inoculum and addition of 1 mL of overlay (DMEM containing 2% FBS and 0.8% CMC) containing compound dilutions. The cells and were incubated at 37° C. in a humidified 5% CO2 incubator for 2 days.
Cells were washed with PBS before adding 75/25% […] EtOH/MeOH, for 3 min. Fixative was removed and plates were washed with PBS. A pre-titrated amount of the primary antibody was added in 200 μL PBS/2% milk powder, and plates incubated for 90 min at 37° C. The plates were washed 3 times with PBS/0.05% Tween20 before addition of rabbit anti-goat horse radish peroxidase in 200 μL PBS/2% milk powder, and incubated for 1 h at 37° C. Following three wash steps with PBS/0.05% Tween20, 200 μL ready-to-use TrueBlue was added and plates were incubated at rt for 10-15 min before washing with water. After removal of water, plates were air-dried in the dark.
as §2

in vitro = in vitro ADME; details: microsomes, pH 7.4, 1 μM compound, 0.5 mg/mL protein, read-out: Liver Microsomal Stability t1/2
Method: Compounds were subjected to the following assays to investigate liver microsomal stability and hepatocyte stability.
Microsomal Incubation: Experimental Procedure
Pooled liver microsomes were purchased from a reputable commercial supplier and stored at −80° C. prior to use. Microsomes (final protein concentration 0.5 mg/mL), 0.1 M phosphate buffer pH 7.4 and test compound (final substrate concentration 1 μM; final DMSO concentration 0.25%) were pre-incubated at 37° C. prior to the addition of NADPH (final concentration 1 mM) to initiate the reaction. The final incubation volume was 50 μL. A control incubation was included for each compound tested where 0.1 M phosphate buffer pH 7.4 was added instead of NADPH (minus NADPH). Two control compounds were included with each species. All incubations were performed singularly for each test compound. Each compound was incubated for 0, 5, 15, 30 and 45 min. The control (minus NADPH) was incubated for 45 min only. The reactions were stopped by transferring incubate into acetonitrile at the appropriate time points, in a 1:3 ratio. The termination plates are centrifuged at 3,000 rpm for 20 min at 4° C. to precipitate the protein. Following protein precipitation, the sample supernatants were combined in cassettes of up to 4 compounds, internal standard added, and samples analysed by LC-MS/MS. From a plot of ln peak area ratio (compound peak area/internal standard peak area) against time, the gradient of the line was determined. Subsequently, half-life (t1/2) and intrinsic clearance (CLint) were calculated.

SMILES	CC50 (Cell cytotoxicity (CC50))	EC50 (RSV A2)	half-life at 1 μM (in vitro; dog)	half-life at 1 μM (in vitro; human)	half-life at 1 μM (in vitro; rat)
CC(C)Nc1ccc(-c2nn3cccnc3c2C(=O)N[C@H]2N=C(c3ccccc3)c3cccc(F)c3NC2=O)cn1 [Example 74, N-[(3S)-9-Fluoro-2-oxo-5-phenyl-1,3-dihydro-1,4-benzodiazepin-3-yl]-2-[6-(propan-2-ylamino)pyridin-3-yl]pyrazolo[1,5-a]pyrimidine-3-carboxamide]	> 25000 nM	28 nM	0.725 h	4.4 h	1.17 h
O=C(N[C@H]1N=C(c2ccccc2)c2ccccc2NC1=O)c1c(-c2ccc(F)cc2F)nn2cccnc12 [Example 4, 2-(2,4-difluorophenyl)-N-[(3S)-2-oxo-5-phenyl-1,3-dihydro-1,4-benzodiazepin-3-yl]pyrazolo[1,5-a]pyrimidine-3-carboxamide]	> 25000 nM	62 nM	3.93 h	> 2.33 h	> 2.33 h
CN1C[C@@H]2C[C@H]1CN2c1ccc2nc(-c3ccccc3)c(C(=O)N[C@H]3N=C(c4ccccc4)c4cccc(F)c4NC3=O)n2n1 [Example 80, N-[(3S)-9-fluoro-2-oxo-5-phenyl-1,3-dihydro-1,4-benzodiazepin-3-yl]-6-[(1S,4S)-5-methyl-2,5-diazabicyclo[2.2.1]heptan-2-yl]-2-phenylimidazo[1,2-b]pyridazine-3-carboxamide]	13800 nM	51 nM	2.98 h	2.4 h	1.9 h
Cc1ccc2nc(-c3ccc(F)cn3)c(C(=O)N[C@H]3N=C(c4ccccc4)c4cccc(F)c4NC3=O)n2n1 [Example 78, N-[(3S)-9-fluoro-2-oxo-5-phenyl-1,3-dihydro-1,4-benzodiazepin-3-yl]-2-(5-fluoropyridin-2-yl)-6-methylimidazo[1,2-b]pyridazine-3-carboxamide]	> 25000 nM	81 nM	4.17 h	3.83 h	0.923 h
COCCOc1ccc2nc(-c3ccccc3F)c(C(=O)N[C@H]3N=C(c4ccccc4)c4cccc(F)c4NC3=O)n2n1 [Example 110, N-[(3S)-9-Fluoro-2-oxo-5-phenyl-1,3-dihydro-1,4-benzodiazepin-3-yl]-2-(2-fluorophenyl)-6-(2-methoxyethoxy)imidazo[1,2-b]pyridazine-3-carboxamide]	> 25000 nM	73 nM	–	–	–
[2H]C([2H])([2H])Oc1ccc2nc(-c3ccc(CC)nc3)c(C(=O)N[C@H]3N=C(c4ccccc4)c4cccc(F)c4NC3=O)n2n1 [Example 123, 2-(6-Ethylpyridin-3-yl)-N-[(3S)-9-fluoro-2-oxo-5-phenyl-2,3-dihydro-1H-1,4-benzodiazepin-3-yl]-6-(^2H3)methoxyimidazo[1,2-b]pyridazine-3-carboxamide]	> 25000 nM	45 nM	–	–	–
CCOc1ccc(-c2nn3cccnc3c2C(=O)N[C@H]2N=C(c3ccccc3)c3cccc(F)c3NC2=O)cn1 [Example 53, 2-(6-Ethoxypyridin-3-yl)-N-[(3S)-9-fluoro-2-oxo-5-phenyl-1,3-dihydro-1,4-benzodiazepin-3-yl]pyrazolo[1,5-a]pyrimidine-3-carboxamide]	> 25000 nM	98 nM	–	–	–
O=C(N[C@H]1N=C(c2ccccc2)c2cccc(F)c2NC1=O)c1c(-c2ccccc2F)nc2ccc(N3CCC3)nn12 [Example 94, 6-(Azetidin-1-yl)-N-[(3S)-9-fluoro-2-oxo-5-phenyl-1,3-dihydro-1,4-benzodiazepin-3-yl]-2-(2-fluorophenyl)imidazo[1,2-b]pyridazine-3-carboxamide]	> 25000 nM	50 nM	–	–	–
Cc1ccc(F)c(-c2nn3cccnc3c2C(=O)N[C@H]2N=C(c3ccccc3)c3ccccc3NC2=O)c1 [Example 25, 2-(2-Fluoro-5-methylphenyl)-N-[(3S)-2-oxo-5-phenyl-1,3-dihydro-1,4-benzodiazepin-3-yl]pyrazolo[1,5-a]pyrimidine-3-carboxamide]	15400 nM	116 nM	–	–	–
Cc1cc(-c2nn3cccnc3c2C(=O)N[C@H]2N=C(c3ccccc3)c3cccc(F)c3NC2=O)ccn1 [Example 52, N-[(3S)-9-fluoro-2-oxo-5-phenyl-1,3-dihydro-1,4-benzodiazepin-3-yl]-2-(2-methylpyridin-4-yl)pyrazolo[1,5-a]pyrimidine-3-carboxamide]	> 25000 nM	103 nM	–	–	–
Cc1ccc2nc(-c3cncc(C(F)(F)F)c3)c(C(=O)N[C@H]3N=C(c4ccccc4)c4ccccc4NC3=O)n2n1 [Example 46, 6-Methyl-N-[(3S)-2-oxo-5-phenyl-1,3-dihydro-1,4-benzodiazepin-3-yl]-2-[5-(trifluoromethyl)pyridin-3-yl]imidazo[1,2-b]pyridazine-3-carboxamide]	> 25000 nM	94 nM	–	–	–
CN1C[C@H]2C[C@@H]1CN2c1ccn2nc(-c3ccccc3F)c(C(=O)N[C@H]3N=C(c4ccccc4)c4cccc(F)c4NC3=O)c2n1 [Example 84, N-[(3S)-9-fluoro-2-oxo-5-phenyl-1,3-dihydro-1,4-benzodiazepin-3-yl]-2-(2-fluorophenyl)[(1R,4R)-5-methyl-2,5-diazabicyclo[2.2.1]heptan-2-yl]pyrazolo[1,5-a]pyrimidine-3-carboxamide]	16300 nM	95 nM	–	–	–
COc1nc(C)ccc1-c1nn2cccnc2c1C(=O)N[C@H]1N=C(c2ccccc2)c2ccccc2NC1=O [Example 86, 2-(2-Methoxy-6-methylpyridin-3-yl)-N-[(3S)-2-oxo-5-phenyl-1,3-dihydro-1,4-benzodiazepin-3-yl]pyrazolo[1,5-a]pyrimidine-3-carboxamide]	> 25000 nM	119 nM	–	–	–
Cc1ccc2nc(-c3cncc(F)c3)c(C(=O)N[C@H]3N=C(c4ccccc4)c4ccccc4NC3=O)n2n1 [Example 101, 2-(5-Fluoropyridin-3-yl)-6-methyl-N-[(3S)-2-oxo-5-phenyl-1,3-dihydro-1,4-benzodiazepin-3-yl]imidazo[1,2-b]pyridazine-3-carboxamide]	> 25000 nM	81 nM	–	–	–
O=C(N[C@H]1N=C(c2ccccc2)c2cccc(F)c2NC1=O)c1c(-c2ccccc2F)nc2ccc(N3CCOCC3)nn12 [Example 79, N-[(3S)-9-Fluoro-2-oxo-5-phenyl-1,3-dihydro-1,4-benzodiazepin-3-yl]-2-(2-fluorophenyl)-6-morpholin-4-ylimidazo[1,2-b]pyridazine-3-carboxamide]	> 25000 nM	26 nM	–	–	–
CCc1ccc(-c2nc3ccc(OC)nn3c2C(=O)N[C@H]2N=C(c3ccccc3)c3cccc(F)c3NC2=O)cn1 [Example 121, 2-(6-Ethylpyridin-3-yl)-6-methoxy-N-[(3S)-9-fluoro-2-oxo-5-phenyl-1,3-dihydro-1,4-benzodiazepin-3-yl]imidazo[1,2-b]pyridazine-3-carboxamide]	> 25000 nM	42 nM	–	–	–
CCc1ccc(-c2nc3ccc(Cl)nn3c2C(=O)N[C@H]2N=C(c3ccccc3)c3cccc(F)c3NC2=O)cn1 [Example 117, 6-Chloro-2-(6-ethylpyridin-3-yl)-N-[(3S)-9-fluoro-2-oxo-5-phenyl-1,3-dihydro-1,4-benzodiazepin-3-yl]imidazo[1,2-b]pyridazine-3-carboxamide]	> 25000 nM	27 nM	–	–	–
